We go through 1 compound from patent US4256462A, “Method and composition for determination of n-nitrosamines” (University of Iowa Research Foundation, priority 1979, dated 1981).

SMILES strings stand for the structures.

The nature of the test: Denitrosation reaction time, iodo vs bromo salts. The note with it: sodium iodide reagent. From the text:
Particularly for the sodium iodide salt, the reaction will occur within one minute, whereas, when bromo salts are substituted, the reaction times are considerably longer, such as five minutes.

Consider `[I-].[Na+]` [sodium iodide], for which the reaction time result was “one”.
